For the assay, the target named is T1, AII receptor (Rattus norvegicus, UniProt P25095).
T1 construct: from tissue; host or cells: whole anesthetized male Wister-Imamichi rat (in vivo, blood pressure in the femoral artery)
T1 sequence (P25095 1-359): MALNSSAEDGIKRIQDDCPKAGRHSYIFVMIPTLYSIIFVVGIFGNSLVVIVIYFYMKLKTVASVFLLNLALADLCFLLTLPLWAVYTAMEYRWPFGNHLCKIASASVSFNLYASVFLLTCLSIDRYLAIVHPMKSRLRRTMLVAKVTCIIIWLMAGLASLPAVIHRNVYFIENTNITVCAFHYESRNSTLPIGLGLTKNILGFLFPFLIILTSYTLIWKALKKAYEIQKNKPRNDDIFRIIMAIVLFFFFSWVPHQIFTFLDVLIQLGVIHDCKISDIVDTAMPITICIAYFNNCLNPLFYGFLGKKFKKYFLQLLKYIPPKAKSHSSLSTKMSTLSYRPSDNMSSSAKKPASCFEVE
Kind of assay: Inhibition of pressor response to intravenous angiotensin II (AII receptor blocking activity). The format is in vivo, rat (male Wister-Imamichi). To be noted: 2 min, read-out: ID50 (dose required to inhibit the pressor response to intravenous angiotensin II by fifty percent). How it is done: Evaluation of AII receptor blocking activity by Inhibition of pressor response to angiotensin II
The biological activity of each compound was assessed by determining the dose required to inhibit the pressor response to intravenous angiotensin II by fifty percent (ID50) in rats. Male Wister-Imamichi rats, each weighing 300 to 400 g, were anesthesized by intraperitoneal injection of 100 mg/Kg of sodium thiobutabarbital [Inactin (trade name)] and two cannulae were inserted: one into the femoral artery for measuring blood pressure and the other into the femoral vein for injecting drugs. […] The percent inhibitions of the pressor response to angiotensin II by progressive increase of the test compound was used to calculate the value of ID50. Angiotensin II was used in this test dissolved in 0.5% bovine serum albumin (BSA) and the test compounds were dissolved in 100% dimethyl sulfoxide (DMSO).
Regarding `CCCc1nc(C(C)(C)O)c(C(=O)O)n1Cc1ccc(-c2ccccc2C(=O)C(=O)O)cc1` [Example 1, 4-(1-Hydroxy-1-methylethyl)-1-[(2'-oxalobiphenyl-4-yl)methyl]-2-propylimidazole-5-carboxylic acid], the ED50 worked out at 0.0065 mg/kg.

In the case of `CCCc1nc(C(C)(C)O)c(C(=O)O)n1Cc1ccc(-c2ccccc2C(=O)c2nnn[nH]2)cc1` [Example 20, 4-(1-Hydroxy-1-methylethyl)-1-{[2'-(tetrazol-5-ylcarbonyl)biphenyl-4-yl]methyl}-2-propylimidazole-5-carboxylic acid], the ED50 came out at 0.026 mg/kg.

As for `CCOCc1nc(C(C)(C)O)c(C(=O)O)n1Cc1ccc(-c2ccccc2C(=O)C(=O)O)cc1` [Example 14, 2-Ethoxymethyl-4-(1-hydroxy-1-methylethyl)-1-[(2'-oxalobiphenyl-4-yl)methyl]imidazole-5-carboxylic acid], the ED50 is 0.0096 mg/kg.

Take `CCCCc1nc(C(C)(C)O)c(C(=O)O)n1Cc1ccc(-c2ccccc2C(=O)C(=O)O)cc1` [Example 2, 2-Butyl-4-(1-hydroxy-1-methylethyl)-1-[(2'-oxalobiphenyl-4-yl)methyl]imidazole-5-carboxylic acid]: the ED50 came out at 0.026 mg/kg.

Turning to `CCc1nc2c(C)cc(C)nc2n1Cc1ccc(-c2ccccc2C(=O)C(=O)O)cc1` [Example 16, 2-Ethyl-5,7-dimethyl-3-(2'-oxalobiphenyl-4-yl)methyl-3H-imidazo[4,5-b]pyridine], the ED50 was determined as 0.024 mg/kg.

Take `CCCc1nc(C(O)C(C)C)c(C(N)=O)n1Cc1ccc(-c2ccccc2C(=O)C(=O)O)cc1` (stereo not shown) [Example 10, 4-(1-Hydroxy-2-methylpropyl)-1-[(2'-oxalobiphenyl-4-yl)-methyl]-2-propylimidazole-5-carboxamide]: the ED50 worked out at 0.022 mg/kg.

For the compound `CCCc1nc(CO)c(C(=O)O)n1Cc1ccc(-c2ccccc2C(=O)C(=O)O)cc1` [Example 6, 4-Hydroxymethyl-1-[(2'-oxalobiphenyl-4-yl)methyl]-2-propylimidazole-5-carboxylic acid], the ED50 is 0.02 mg/kg.

`CCCCc1nc(C(O)C(C)(C)C)c(C(N)=O)n1Cc1ccc(-c2ccccc2C(=O)C(=O)O)cc1` (stereo not shown) [Example 13, 2-Butyl-4-(1-hydroxy-2,2-dimethylpropyl)-1-[(2'-oxalobiphenyl-4-yl)methyl]imidazole-5-carboxamide]: the ED50 was 0.048 mg/kg.

As to `C=C(C)c1nc(CCC)n(Cc2ccc(-c3ccccc3C(=O)C(=O)O)cc2)c1C(=O)O` [Example 8, 4-Isopropenyl-1-[(2'-oxalobiphenyl-4-yl)methyl]-2-propylimidazole-5-carboxylic acid], the ED50 was determined as 0.06 mg/kg.

For `CCCc1nc(C(C)C)c(C(=O)O)n1Cc1ccc(-c2ccccc2C(=O)C(=O)O)cc1` [Example 9, 4-Isopropyl-1-[(2'-oxalobiphenyl-4-yl)methyl]-2-propylimidazole-5-carboxylic acid], the ED50 was found to be 0.053 mg/kg.

For `CCCc1nc(C(O)C(C)(C)C)c(C(N)=O)n1Cc1ccc(-c2ccccc2C(=O)C(=O)O)cc1` (stereo not shown) [Example 11, 4-(1-Hydroxy-2,2-dimethylpropyl)-1-[(2'-oxalobiphenyl-4-yl)methyl]-2-propylimidazole-5-carboxamide], the ED50 came to 0.017 mg/kg.

`CCCc1nc(C(C)(C)O)c(-c2nnn[nH]2)n1Cc1ccc(-c2ccccc2C(=O)C(=O)O)cc1` [Example 7, {4'-[4-(1-Hydroxy-1-methylethyl)-2-propyl-5-(tetrazol-5-yl)imidazol-1-ylmethyl]biphenyl-2-yl}glyoxylic acid]: the ED50 is 0.021 mg/kg.

`CCCCc1nc(C(O)C(C)C)c(C(N)=O)n1Cc1ccc(-c2ccccc2C(=O)C(=O)O)cc1` (stereo not shown) [Example 12, 2-Butyl-4-(1-hydroxy-2-methylpropyl)-1-[(2'-oxalobiphenyl-4-yl)methyl]imidazole-5-carboxamide]: the ED50 is 0.042 mg/kg.
